Measurements from patent publication US11098056B2, “UDP glycosyltransferase inhibitors and methods of use” (GENZYME CORPORATION, priority 2018, dated 2021).

Target: T1, UGT8 (Homo sapiens, UniProt Q16880)
T1 construct: host or cells: OE19 cells
T1 sequence (Q16880 21-541): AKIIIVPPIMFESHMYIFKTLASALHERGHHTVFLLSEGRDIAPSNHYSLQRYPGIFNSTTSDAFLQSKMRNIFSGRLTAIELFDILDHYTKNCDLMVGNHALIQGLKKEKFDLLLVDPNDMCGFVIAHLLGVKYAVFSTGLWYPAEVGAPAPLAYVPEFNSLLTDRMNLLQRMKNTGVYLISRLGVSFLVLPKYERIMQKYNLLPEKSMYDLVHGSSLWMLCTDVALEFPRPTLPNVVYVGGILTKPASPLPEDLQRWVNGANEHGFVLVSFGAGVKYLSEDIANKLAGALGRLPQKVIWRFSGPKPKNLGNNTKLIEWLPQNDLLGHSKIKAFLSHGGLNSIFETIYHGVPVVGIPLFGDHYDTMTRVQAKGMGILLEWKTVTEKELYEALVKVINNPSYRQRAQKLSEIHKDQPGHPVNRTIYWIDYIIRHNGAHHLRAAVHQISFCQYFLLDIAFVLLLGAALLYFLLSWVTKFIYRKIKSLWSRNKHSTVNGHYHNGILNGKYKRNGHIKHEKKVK
Test: In vitro sulfatide (SFT) synthesis inhibition in OE19 cells, LC-MS/MS readout
Type: cell-based
Settings: 72 hr, sulfatide by LC-MS/MS; for IC50: read-out: Potency range (IC50, In-vitro SFT)
Outline: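 OE19 cells, 2,500/well, exposed to compound dose-downs in triplicate for 72 hr at 37° C (screening at 10 μM final). Sulfatide quantified by LC-MS/MS (C8 UPLC, isocratic, negative-ion MRM) with C17 SFT internal standard; IC50 from concentration-response curves.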

Row | SMILES | IC50 [nM] | Potency range (IC50, In-vitro SFT)
1 | CNC(=O)c1csc2c(C(F)(F)F)cc(C3CC4(C3)CN(C(=O)OC(C)(C)C)C4)nc12 [Example 574, tert-Butyl 6-(3-(methylcarbamoyl)-7-(trifluoromethyl)thieno[3,2-b]pyridin-5-yl)-2-azaspiro[3.3]heptane-2-carboxylate] | < 100 | 
2 | CNC(=O)c1csc2c(C(F)(F)F)cc(C3CC4(C3)CN(C(=O)OCCOC(F)(F)F)C4)nc12 [Example 576, 2-(Trifluoromethoxy)ethyl 6-(3-(methylcarbamoyl)-7-(trifluoromethyl)thieno[3,2-b]pyridin-5-yl)-2-azaspiro[3.3]heptane-2-carboxylate] | < 100 | 
3 | CNC(=O)c1csc2c(C(F)(F)F)cc(OCC3CN(C(=O)OC(C)(C)C)C3)nc12 [Example 585, tert-Butyl 3-(((3-(methylcarbamoyl)-7-(trifluoromethyl)thieno[3,2-b]pyridin-5-yl)oxy)methyl)azetidine-1-carboxylate] | 100 to 1000 | 
4 | CNC(=O)c1csc2c(C(F)(F)F)cc(OC3CCN(C(=O)NCC4CC4)C3)nc12 (centres unmarked) [Example 590, 5-((1-((Cyclopropylmethyl)carbamoyl)pyrrolidin-3-yl)oxy)-N-methyl-7-(trifluoromethyl)thieno[3,2-b]pyridine-3-carboxamide] | 100 to 1000 | 
5 | CNC(=O)c1csc2c(C(F)(F)F)cc(O[C@H]3CCN(C(=O)OC(C)(C)C)C3)nc12 [Example 593, tert-Butyl (S)-3-((3-(methylcarbamoyl)-7-(trifluoromethyl)thieno[3,2-b]pyridin-5-yl)oxy)pyrrolidine-1-carboxylate] | 100 to 1000 | 
6 | CNC(=O)c1csc2c(C(F)(F)F)cc(O[C@H]3CCN(C(=O)NCC4CC4)C3)nc12 [Example 594, (S)-5-((1-((Cyclopropylmethyl)carbamoyl)pyrrolidin-3-yl)oxy)-N-methyl-7-(trifluoromethyl)thieno[3,2-b]pyridine-3-carboxamide] | 100 to 1000 | 
7 | CNC(=O)c1csc2c(C(F)(F)F)cc(CC3CCN(C(=O)OCCOC(F)(F)F)CC3)nc12 [Example 632, 2-(Trifluoromethoxy)ethyl 4-((3-(methylcarbamoyl)-7-(trifluoromethyl)thieno[3,2-b]pyridin-5-yl)methyl)piperidine-1-carboxylate] | < 100 | 
8 | CNC(=O)c1csc2c(C(F)(F)F)c(F)c(N3CCC(OC(=O)N[C@@H](C)C4CC4)CC3)nc12 [Example 639, [1-[6-Fluoro-3-(methylcarbamoyl)-7-(trifluoromethyl)thieno[3,2-b]pyridin-5-yl]-4-piperidyl] N-[(1S)-1-cyclopropylethyl]carbamate] | < 100 | 
9 | CNC(=O)c1csc2c(C(F)(F)F)c(F)c(N3CCC(OC(=O)NC4CC4)CC3)nc12 [Example 641, [1-[6-fluoro-3-(methylcarbamoyl)-7-(trifluoromethyl)thieno[3,2-b]pyridin-5-yl]-4-piperidyl] N-cyclopropylcarbamate] | < 100 | 
10 | CC(C)NC(=O)c1csc2c(C(F)(F)F)cc(N3CCC(NC(=O)OC(C)(C)C)C3)nc12 (centres unmarked) [Example 642, tert-Butyl N-[1-[3-(isopropylcarbamoyl)-7-(trifluoromethyl)thieno[3,2-b]pyridin-5-yl]pyrrolidin-3-yl]carbamate] | 100 to 1000 | 
11 | [2H]C([2H])([2H])NC(=O)c1csc2c(C(F)(F)F)cc(N3CCC(OC(=O)NC4CC4)CC3)nc12 [Example 653, [1-[3-(Trideuteriomethylcarbamoyl)-7-(trifluoromethyl)thieno[3,2-b]pyridin-5-yl]-4-piperidyl] N-cyclopropylcarbamate] | < 100 | 
12 | COC(=O)c1csc2c(C(F)(F)F)cc(N3CCC(NC(=O)OC(C)(C)C)C3)nc12 (centres unmarked) [Example 659, Methyl 5-[3-(tert-butoxycarbonylamino)pyrrolidin-1-yl]-7-(trifluoromethyl)thieno[3,2-b]pyridine-3-carboxylate] | 100 to 1000 | 
13 | CNC(=O)c1csc2c(C(F)(F)F)cc(N3CCC(OC(=O)NC(C)C(F)F)CC3)nc12 (centres unmarked) [Example 670, [1-[3-(Methylcarbamoyl)-7-(trifluoromethyl)thieno[3,2-b]pyridin-5-yl]-4-piperidyl] N-(2,2-difluoro-1-methyl-ethyl)carbamate] | < 100 | 
14 | CNC(=O)c1csc2c(C(F)(F)F)cc(N3CCC(OC(=O)N4C[C@@H](N(C)C)[C@@H]4C)CC3)nc12 [Example 794, 1-(3-(Methylcarbamoyl)-7-(trifluoromethyl)thieno[3,2-b]pyridin-5-yl)piperidin-4-yl (2S,3R)-3-(dimethylamino)-2-methylazetidine-1-carboxylate] | < 100 | 

More lines, now with the values ahead:

Row | IC50 [nM] | Potency range (IC50, In-vitro SFT) | SMILES
15 | 100 to 1000 |  | CNC(=O)c1csc2c(C(F)(F)F)cc(OC3CCN(C(=O)OC(C)(C)C)C3)nc12 (centres unmarked) [Example 589, tert-Butyl 3-((3-(methylcarbamoyl)-7-(trifluoromethyl)thieno[3,2-b]pyridin-5-yl)oxy)pyrrolidine-1-carboxylate]
16 | < 100 |  | CNC(=O)c1csc2c(C(F)(F)F)cc(O[C@H]3CCN(C(=O)OCC4CC4)C3)nc12 [Example 595, Cyclopropylmethyl (S)-3-((3-(methylcarbamoyl)-7-(trifluoromethyl)thieno[3,2-b]pyridin-5-yl)oxy)pyrrolidine-1-carboxylate]
17 | < 100 |  | CNC(=O)c1csc2c(C(F)(F)F)cc(O[C@H]3CCN(C(=O)OCCOC(F)(F)F)C3)nc12 [Example 600, 2-(Trifluoromethoxy)ethyl (S)-3-((3-(methylcarbamoyl)-7-(trifluoromethyl)thieno[3,2-b]pyridin-5-yl)oxy)pyrrolidine-1-carboxylate]
18 | 100 to 1000 |  | CNC(=O)c1csc2c(C(F)(F)F)cc(CC3CCN(C(=O)OC(C)(C)C)CC3)nc12 [Example 634, tert-Butyl 4-((3-(methylcarbamoyl)-7-(trifluoromethyl)thieno[3,2-b]pyridin-5-yl)methyl)piperidine-1-carboxylate]
19 | 100 to 1000 |  | CNC(=O)c1csc2c(C(F)(F)F)c(Cl)c(N3CCN(CC(=O)NC(C)C)CC3)nc12 [Example 636, 6-Chloro-5-[4-[2-(isopropylamino)-2-oxo-ethyl]piperazin-1-yl]-N-methyl-7-(trifluoromethyl)thieno[3,2-b]pyridine-3-carboxamide]
20 | 100 to 1000 |  | CNC(=O)c1c(OC)sc2c(C(F)(F)F)c(Cl)c(N3CCN(CC(=O)NC(C)C)CC3)nc12 [Example 637, 6-Chloro-5-[4-[2-(isopropylamino)-2-oxo-ethyl]piperazin-1-yl]-2-methoxy-N-methyl-7-(trifluoromethyl)thieno[3,2-b]pyridine-3-carboxamide]
21 | < 100 |  | CNC(=O)c1csc2c(C(F)(F)F)c(Cl)c(N3CCC(OC(=O)NCC4CC4)CC3)nc12 [Example 638, [1-[6-Chloro-3-(methylcarbamoyl)-7-(trifluoromethyl)thieno[3,2-b]pyridin-5-yl]-4-piperidyl] N-(cyclopropylmethyl)carbamate]
22 | < 100 |  | CNC(=O)c1csc2c(C(F)(F)F)c(Cl)c(N3CCC(OC(=O)NC4CC4)CC3)nc12 [Example 640, [1-[6-Chloro-3-(methylcarbamoyl)-7-(trifluoromethyl)thieno[3,2-b]pyridin-5-yl]-4-piperidyl] N-cyclopropylcarbamate]
23 | 100 to 1000 |  | CC(C)NC(=O)CN1CCN(c2cc(C(F)(F)F)c3scc(C(=O)N4CCC4)c3n2)CC1 [Example 649, 2-[4-[3-(Azetidine-1-carbonyl)-7-(trifluoromethyl)thieno[3,2-b]pyridin-5-yl]piperazin-1-yl]-N-isopropyl-acetamide]
24 |  | A (A < 0.1 uM) | CNC(=O)c1csc2c(C(F)(F)F)cc(N3CCC(OC(=O)NCC4CC4)CC3)nc12.Cl [Example 669, [1-[3-(Methylcarbamoyl)-7-(trifluoromethyl)thieno[3,2-b]pyridin-5-yl]-4-piperidyl] N-(cyclopropylmethyl)carbamate hydrochloride]
25 | < 100 |  | CNC(=O)c1csc2c(C(F)(F)F)cc(N3CCC(OC(=O)N[C@H](C)CF)CC3)nc12 [Example 692, [1-[3-(Methylcarbamoyl)-7-(trifluoromethyl)thieno[3,2-b]pyridin-5-yl]-4-piperidyl] N-[(1R)-2-fluoro-1-methyl-ethyl]carbamate]
26 | > 1000 |  | CNC(=O)c1csc2c(C(F)(F)F)cc(OC3CC4COCC(C3)N4C(=O)OC(C)(C)C)nc12 (centres unmarked) [Example 750]
27 | < 100 |  | CNC(=O)c1csc2c(C(F)(F)F)cc(N3CCN(C(=O)OCC4CC4)CC3)nc12 [Example 780, Cyclopropylmethyl 4-(3-(methylcarbamoyl)-7-(trifluoromethyl)thieno[3,2-b]pyridin-5-yl)piperazine-1-carboxylate]
28 | 100 to 1000 |  | CNC(=O)c1csc2c(C(F)(F)F)cc(N3CCC(OC(=O)N4C[C@H](N(C)C)[C@@H]4C)CC3)nc12 [Example 793, 1-(3-(Methylcarbamoyl)-7-(trifluoromethyl)thieno[3,2-b]pyridin-5-yl)piperidin-4-yl (2S,3S)-3-(dimethylamino)-2-methylazetidine-1-carboxylate]
29 | < 100 |  | CNC(=O)c1csc2c(C(F)(F)F)cc(N3CCC(OC(=O)N4CC5(CCN5C)C4)CC3)nc12 [Example 806, 1-(3-(Methylcarbamoyl)-7-(trifluoromethyl)thieno[3,2-b]pyridin-5-yl)piperidin-4-yl 1-methyl-1,6-diazaspiro[3.3]heptane-6-carboxylate]
